Key:
Assay type in all cases: biochemical
[1] = target: cSRC (h) (Homo sapiens, UniProt P12931); experiment: cSRC human kinase assay (glass-fiber filter); details: test concentration of 10^−6M
Method: (§1) The in vitro inhibition of a panel of kinases was assessed using either the glass-fiber filter technology as described by Davies, S. P. et al., Biochem J. […] In the glass-fiber filter technology the activity of the kinase of interest is measured using an appropriate substrate that is incubated with the aforementioned kinase protein in the presence of (^33P) radiolabeled ATP. (^33P) Phosphorylation of the substrate is subsequently measured as radioactivity bound on a glass fiber-filter. All kinases are pre-diluted to a 10× working concentration prior to addition into the assay. The composition of the dilution buffer for each kinase is detailed below. […] The reaction is initiated by the addition of the MgATP mix. […] 10 μl of the reaction is then spotted onto a P30 filtermat and washed three times for 5 minutes in 75 mM phosphoric acid and once in methanol prior to drying and scintillation counting.

[2] = target: EGFR (h) (Homo sapiens, UniProt P00533); experiment: EGFR human kinase assay (glass-fiber filter); details: test concentration of 10^−6M; for inhibition at 1 µM: read-out: C4 score (inhibition of EGFR human)
Method: (§2) In the glass-fiber filter technology the activity of the kinase of interest is measured using an appropriate substrate that is incubated with the aforementioned kinase protein in the presence of (^33P) radiolabeled ATP. (^33P) Phosphorylation of the substrate is subsequently measured as radioactivity bound on a glass fiber-filter.
(§3) All kinases are pre-diluted to a 10× working concentration prior to addition into the assay. The composition of the dilution buffer for each kinase is detailed below.
(§4) In a final reaction volume of 25 μl, EGFR (h) (5-10 mU) is incubated with 8 mM MOPS pH 7.0, 0.2 mM EDTA, 10 mM MnCl2, 0.1 mg/ml poly(Glu, Tyr) 4:1, 10 mM MgAcetate and [γ-^33P-ATP] (specific activity approx. 500 cpm/pmol, concentration as required). The reaction is initiated by the addition of the MgATP mix. After incubation for 40 minutes at room temperature, the reaction is stopped by the addition of 5 μl of a 3% phosphoric acid solution. 10 μl of the reaction is then spotted onto a Filtermat A and washed three times for 5 minutes in 75 mM phosphoric acid and once in methanol prior to drying and scintillation counting.

[3] = target: Lck (h) (Homo sapiens, UniProt P06239); experiment: Lck human kinase assay (glass-fiber filter); details: test concentration of 10^−6M; for inhibition at 1 µM: read-out: C9 score (inhibition of Lck human)
Chain of Lck (h) (P06239 whole entry): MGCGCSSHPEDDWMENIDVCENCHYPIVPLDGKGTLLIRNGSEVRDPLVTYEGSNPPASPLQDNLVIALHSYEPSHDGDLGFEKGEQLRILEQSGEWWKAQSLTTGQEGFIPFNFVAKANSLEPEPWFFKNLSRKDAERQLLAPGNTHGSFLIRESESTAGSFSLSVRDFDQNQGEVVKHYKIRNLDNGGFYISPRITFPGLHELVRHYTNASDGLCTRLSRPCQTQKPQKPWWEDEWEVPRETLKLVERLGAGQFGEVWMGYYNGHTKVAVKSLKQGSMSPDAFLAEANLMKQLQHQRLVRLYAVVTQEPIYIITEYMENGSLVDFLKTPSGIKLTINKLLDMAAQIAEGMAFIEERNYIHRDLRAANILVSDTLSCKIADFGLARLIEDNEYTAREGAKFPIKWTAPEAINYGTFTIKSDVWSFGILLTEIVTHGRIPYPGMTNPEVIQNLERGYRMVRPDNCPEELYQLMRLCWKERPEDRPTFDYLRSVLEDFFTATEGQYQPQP
Method: as §1, with “below. [table]” for “below.”

[4] = target: Yes (h) (Homo sapiens, UniProt P07947); experiment: Yes human kinase assay (glass-fiber filter); details: test concentration of 10^−6M; for inhibition at 1 µM: read-out: C11 score (inhibition of Yes human)
Chain of Yes (h) (P07947 whole entry): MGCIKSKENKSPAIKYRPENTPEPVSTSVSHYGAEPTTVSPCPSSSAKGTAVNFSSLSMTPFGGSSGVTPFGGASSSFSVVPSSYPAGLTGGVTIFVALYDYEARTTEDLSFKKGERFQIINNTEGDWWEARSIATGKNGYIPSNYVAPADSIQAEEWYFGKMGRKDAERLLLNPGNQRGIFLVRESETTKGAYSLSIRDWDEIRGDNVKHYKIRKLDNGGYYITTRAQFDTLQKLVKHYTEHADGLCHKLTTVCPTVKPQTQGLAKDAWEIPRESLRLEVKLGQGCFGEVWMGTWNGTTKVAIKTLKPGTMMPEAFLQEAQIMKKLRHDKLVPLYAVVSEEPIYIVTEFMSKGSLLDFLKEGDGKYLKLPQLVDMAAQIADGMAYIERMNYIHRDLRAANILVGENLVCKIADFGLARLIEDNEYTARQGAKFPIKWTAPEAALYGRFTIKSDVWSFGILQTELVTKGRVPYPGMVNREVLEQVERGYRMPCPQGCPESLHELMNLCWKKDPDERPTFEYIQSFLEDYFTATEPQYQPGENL
Method: as §2, §3
as §4, with “Yes” for “EGFR”, “EDTA,” for “EDTA, 10 mM MnCl2,”, “[…],” for “cpm/pmol,”

[5] = target: Abl (h) (Homo sapiens, UniProt P00519); experiment: Abl human kinase assay (glass-fiber filter); details: test concentration of 10^−6M; for inhibition at 1 µM: read-out: C1 score (inhibition of Abl human)
Method: as §2, §3
as §4, with “(specific” for “In a final reaction volume of 25 μl, EGFR (h) (5-10 mU) is incubated with 8 mM MOPS pH 7.0, 0.2 mM EDTA, 10 mM MnCl2, 0.1 mg/ml poly(Glu, Tyr) 4:1, 10 mM MgAcetate and [γ-^33P-ATP] (specific”, “P30 filtermat” for “Filtermat A”

[6] = target: Lyn (h) (Homo sapiens, UniProt P07948); experiment: Lyn human kinase assay (glass-fiber filter); details: test concentration of 10^−6M; for inhibition at 1 µM: read-out: C10 score (inhibition of Lyn human)
Chain of Lyn (h) (P07948 whole entry): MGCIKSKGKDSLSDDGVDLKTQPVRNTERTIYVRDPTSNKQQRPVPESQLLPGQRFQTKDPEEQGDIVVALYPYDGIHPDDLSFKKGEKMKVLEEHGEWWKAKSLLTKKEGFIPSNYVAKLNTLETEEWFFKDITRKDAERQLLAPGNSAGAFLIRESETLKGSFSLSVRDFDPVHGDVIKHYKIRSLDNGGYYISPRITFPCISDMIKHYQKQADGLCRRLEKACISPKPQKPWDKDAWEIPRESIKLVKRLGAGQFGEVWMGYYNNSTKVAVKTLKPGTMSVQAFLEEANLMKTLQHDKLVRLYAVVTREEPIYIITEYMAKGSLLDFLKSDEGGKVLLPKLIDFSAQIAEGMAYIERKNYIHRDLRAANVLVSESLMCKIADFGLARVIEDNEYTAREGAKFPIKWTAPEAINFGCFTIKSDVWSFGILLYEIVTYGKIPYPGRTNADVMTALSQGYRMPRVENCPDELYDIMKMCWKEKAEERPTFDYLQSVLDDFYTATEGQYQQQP
Method: as §2, §3
In a final reaction volume of […] (h) (5-10 mU) is incubated with 50 mM Tris pH 7.5, 0.1 mM EGTA, 0.1 mM Na3VO4, 0.1% O-mercaptoethanol, 0.1 mg/ml poly(Glu, Tyr) 4:1, 10 mM MgAcetate and [γ-^33P-ATP] (specific activity approx. 500 cpm/pmol, concentration as required). The reaction is initiated by the addition of the MgATP mix. After incubation for 40 minutes at room temperature, the reaction is stopped by the addition of 5 μl of a 3% phosphoric acid solution. 10 μl of the reaction is then spotted onto a Filtennat A and washed three times for 5 minutes in 75 mM phosphoric acid and once in methanol prior to drying and scintillation counting.

[7] = target: Fes (h) (Homo sapiens, UniProt P07332); experiment: Fes human kinase assay (glass-fiber filter); details: test concentration of 10^−6M; for inhibition at 1 µM: read-out: C4 score (inhibition of Fes human)
Chain of Fes (h) (P07332 whole entry): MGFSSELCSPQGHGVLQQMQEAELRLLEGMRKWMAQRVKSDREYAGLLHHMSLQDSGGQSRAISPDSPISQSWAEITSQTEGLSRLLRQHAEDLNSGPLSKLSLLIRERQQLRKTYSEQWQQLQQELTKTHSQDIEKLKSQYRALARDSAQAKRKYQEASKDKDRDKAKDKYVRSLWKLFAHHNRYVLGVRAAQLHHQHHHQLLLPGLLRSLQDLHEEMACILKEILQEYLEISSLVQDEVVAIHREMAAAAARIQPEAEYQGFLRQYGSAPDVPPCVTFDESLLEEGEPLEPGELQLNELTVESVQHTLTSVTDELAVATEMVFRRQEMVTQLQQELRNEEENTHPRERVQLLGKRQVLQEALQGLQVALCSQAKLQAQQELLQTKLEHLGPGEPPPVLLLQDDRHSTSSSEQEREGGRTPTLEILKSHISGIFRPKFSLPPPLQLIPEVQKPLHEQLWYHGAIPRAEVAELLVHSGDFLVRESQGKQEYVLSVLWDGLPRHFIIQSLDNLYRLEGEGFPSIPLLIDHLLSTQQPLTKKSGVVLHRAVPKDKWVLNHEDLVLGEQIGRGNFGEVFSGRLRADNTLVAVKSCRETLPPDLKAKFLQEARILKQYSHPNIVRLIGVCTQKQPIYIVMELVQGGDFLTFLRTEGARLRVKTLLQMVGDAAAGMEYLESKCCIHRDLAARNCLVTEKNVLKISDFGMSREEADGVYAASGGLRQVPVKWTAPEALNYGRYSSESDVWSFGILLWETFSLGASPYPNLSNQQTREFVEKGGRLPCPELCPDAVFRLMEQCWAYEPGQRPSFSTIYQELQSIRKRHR
Method: as §2, §3
as §4, with “Fes” for “EGFR”, “EDTA,” for “EDTA, 10 mM MnCl2,”

[8] = target: Fms (h) (Homo sapiens, UniProt P07333); experiment: Fms human kinase assay (glass-fiber filter); details: test concentration of 10^−6M; read-out: C7 score (inhibition of Fms human)
Chain of Fms (h) (P07333 20-972): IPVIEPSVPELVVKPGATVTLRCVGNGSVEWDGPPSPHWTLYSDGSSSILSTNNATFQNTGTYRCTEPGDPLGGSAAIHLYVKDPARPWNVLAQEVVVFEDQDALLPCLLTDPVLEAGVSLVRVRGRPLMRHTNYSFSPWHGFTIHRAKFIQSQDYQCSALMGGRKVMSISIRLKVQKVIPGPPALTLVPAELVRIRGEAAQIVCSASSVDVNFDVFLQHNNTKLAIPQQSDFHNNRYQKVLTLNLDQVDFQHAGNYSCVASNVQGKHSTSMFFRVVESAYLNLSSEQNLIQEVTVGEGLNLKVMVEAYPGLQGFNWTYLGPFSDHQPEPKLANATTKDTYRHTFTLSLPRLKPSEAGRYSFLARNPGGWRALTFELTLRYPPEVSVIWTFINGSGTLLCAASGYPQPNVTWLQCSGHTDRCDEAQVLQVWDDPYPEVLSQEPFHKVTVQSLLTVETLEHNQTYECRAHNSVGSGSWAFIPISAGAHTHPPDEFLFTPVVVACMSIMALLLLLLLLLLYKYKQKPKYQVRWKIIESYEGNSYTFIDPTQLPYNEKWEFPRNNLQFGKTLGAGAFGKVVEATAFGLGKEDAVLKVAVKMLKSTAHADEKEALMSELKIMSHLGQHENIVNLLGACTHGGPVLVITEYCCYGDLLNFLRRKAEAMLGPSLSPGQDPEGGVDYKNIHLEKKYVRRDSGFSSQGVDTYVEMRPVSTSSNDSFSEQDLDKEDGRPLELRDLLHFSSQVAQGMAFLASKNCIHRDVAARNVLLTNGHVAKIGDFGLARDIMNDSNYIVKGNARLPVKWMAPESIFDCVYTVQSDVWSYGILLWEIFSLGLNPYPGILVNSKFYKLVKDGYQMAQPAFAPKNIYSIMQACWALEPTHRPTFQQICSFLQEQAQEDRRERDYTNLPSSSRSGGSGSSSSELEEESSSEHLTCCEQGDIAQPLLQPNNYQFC
Method: (§5) The in vitro inhibition of a panel of kinases was assessed using either the glass-fiber filter technology as described by Davies, S. P. et al., Biochem J. (2000), 351; p. 95-105.
as §2, §3
as §4, with “Fms” for “EGFR”, “250 μM […],” for “10 mM MnCl2, 0.1 mg/ml poly(Glu, Tyr) 4:1,”, “P30 filtermat” for “Filtermat A”

[9] = target: Flt3 (h) (Homo sapiens, UniProt P36888); experiment: Flt3 human kinase assay (glass-fiber filter); details: test concentration of 10^−6M; for inhibition at 1 µM: read-out: C6 score (inhibition of Flt3 human)
Chain of Flt3 (h) (P36888 27-993): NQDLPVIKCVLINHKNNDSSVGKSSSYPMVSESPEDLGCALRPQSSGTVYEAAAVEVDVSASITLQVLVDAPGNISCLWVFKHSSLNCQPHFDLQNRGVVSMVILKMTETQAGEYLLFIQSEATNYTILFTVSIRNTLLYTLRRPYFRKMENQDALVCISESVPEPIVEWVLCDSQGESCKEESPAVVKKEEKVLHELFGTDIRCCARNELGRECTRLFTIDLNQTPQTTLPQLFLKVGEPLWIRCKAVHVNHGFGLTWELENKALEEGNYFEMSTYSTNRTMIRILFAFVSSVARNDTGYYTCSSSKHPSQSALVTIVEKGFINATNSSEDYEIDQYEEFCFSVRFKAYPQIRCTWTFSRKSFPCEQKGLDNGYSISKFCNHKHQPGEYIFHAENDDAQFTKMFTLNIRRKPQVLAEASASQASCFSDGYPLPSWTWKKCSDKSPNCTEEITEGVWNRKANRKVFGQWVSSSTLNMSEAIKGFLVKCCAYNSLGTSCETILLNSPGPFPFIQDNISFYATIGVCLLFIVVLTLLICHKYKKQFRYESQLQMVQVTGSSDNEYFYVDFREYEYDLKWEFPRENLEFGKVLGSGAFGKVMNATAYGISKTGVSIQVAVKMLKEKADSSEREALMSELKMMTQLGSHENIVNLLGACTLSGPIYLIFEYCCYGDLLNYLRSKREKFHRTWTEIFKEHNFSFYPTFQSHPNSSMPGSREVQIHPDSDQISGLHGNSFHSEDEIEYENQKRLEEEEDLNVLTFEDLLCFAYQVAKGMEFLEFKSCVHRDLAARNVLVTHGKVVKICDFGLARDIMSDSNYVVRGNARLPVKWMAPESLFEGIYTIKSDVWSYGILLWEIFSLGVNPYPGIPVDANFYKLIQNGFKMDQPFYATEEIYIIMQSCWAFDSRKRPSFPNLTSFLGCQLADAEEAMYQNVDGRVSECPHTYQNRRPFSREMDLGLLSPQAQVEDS
Method: as §5, §2, §3
as §4, with “Flt3” for “EGFR”, “50 μM […],” for “10 mM MnCl2, 0.1 mg/ml poly(Glu, Tyr) 4:1,”, “P30 filtermat” for “Filtermat A”

[10] = target: GSK3B (h) (Homo sapiens, UniProt P49841); experiment: GSK3β human kinase assay (glass-fiber filter); details: test concentration of 10^−6M
Chain of GSK3B (h) (P49841 whole entry): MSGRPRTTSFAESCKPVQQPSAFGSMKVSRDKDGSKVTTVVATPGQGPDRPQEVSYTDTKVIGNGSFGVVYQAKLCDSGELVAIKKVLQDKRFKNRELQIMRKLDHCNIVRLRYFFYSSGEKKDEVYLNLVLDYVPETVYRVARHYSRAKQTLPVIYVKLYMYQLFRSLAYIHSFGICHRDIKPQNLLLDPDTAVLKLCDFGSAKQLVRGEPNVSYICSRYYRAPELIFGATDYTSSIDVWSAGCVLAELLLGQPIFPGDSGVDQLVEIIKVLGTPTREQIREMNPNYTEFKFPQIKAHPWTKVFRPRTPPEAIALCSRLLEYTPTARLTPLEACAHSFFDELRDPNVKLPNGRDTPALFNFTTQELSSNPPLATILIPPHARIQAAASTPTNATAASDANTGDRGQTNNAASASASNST
Method: as §5, §2, §3
as §4, with “GSK3B” for “EGFR”, “20 μM […](p)EDEEE (phospho GS2 peptide),” for “10 mM MnCl2, 0.1 mg/ml poly(Glu, Tyr) 4:1,”, “P30 filtermat” for “Filtermat A”, “50” for “75”

Compound: COc1ccc2cc1OCCCNC(=O)[C@H](CC(C)C)NC(=O)Cc1ccc(Cl)cc1Nc1cc(ncn1)N2 [Compound 12, 6, 2:12,8-dimetheno-7H-13,1,3,5,7,17,20-benzoxahexaazacyclotetracosine-18,21-dione, 25-chloro-1,14,15,16,17,19,20,22-octahydro-11-methoxy-19-(2-methylpropyl)-, (19S)-]
- C3 score (inhibition of cSRC human) [1]: 4 (Score 4=>80% inhibition)
- C4 score (inhibition of EGFR human) [2]: 4 (Score 4=>80% inhibition)
- C9 score (inhibition of Lck human) [3]: 4 (Score 4=>80% inhibition)
- C11 score (inhibition of Yes human) [4]: 4 (Score 4=>80% inhibition)
- C1 score (inhibition of Abl human) [5]: 2 (Score 2=30-60% inhibition)
- C10 score (inhibition of Lyn human) [6]: 4 (Score 4=>80% inhibition)
- C4 score (inhibition of Fes human) [7]: 2 (Score 2=30-60% inhibition)

Compound: N#Cc1cnc2nc1Nc1cccc(c1)C(=O)NCCCCCOc1cccc(c1)N2 [Compound 18, 21-oxa-2,4,8,15,28-pentaazatetracyclo[20.3.1.1~3,7~.1~9,13~]octacosa-1(26),3,5,7(28),9,11,13(27),22,24-nonaene-6-carbonitrile, 14-oxo-]
- inhibition at 1 µM [2]: 10 to 30%
- inhibition at 1 µM [3]: 10 to 30%
- inhibition at 1 µM [4]: 10 to 30%
- inhibition at 1 µM [5]: 10 to 30%
- inhibition at 1 µM [6]: 30 to 60%
- inhibition at 1 µM [8]: 30 to 60%
- inhibition at 1 µM [9]: 30 to 60%
- inhibition at 1 µM [7]: 10 to 30%

Compound: O=C1NCCCCCCOc2cccc(c2)Nc2ccnc(n2)Nc2cccc1c2 [Compound 21, 14-oxa-2,4,8,21,29-pentaazatetracyclo[21.3.1.1~3,7~.1~9,13~]nonacosa-1(27),3,5,7(29),9,11,13(28),23,25-nonaen-22-one]
- inhibition at 1 µM ([1]; read-out: C3 score (inhibition of cSRC human)): 10 to 30%
- inhibition at 1 µM [3]: 30 to 60%
- inhibition at 1 µM [4]: 10 to 30%
- inhibition at 1 µM [5]: 10 to 30%
- inhibition at 1 µM [6]: 10 to 30%
- inhibition at 1 µM [8]: 30 to 60%
- inhibition at 1 µM ([10]; read-out: C8 score (inhibition of GSK3β human)): 10 to 30%
- inhibition at 1 µM [9]: 60 to 80%

Compound: O=C1COc2cccc(c2)Nc2nccc(n2)Nc2cccc(c2)CN1 [Compound 23, 18-oxa-2,4,8,15,25-pentaazatetracyclo[17.3.1.1~3,7~.1~9,13~]pentacosa-1(23),3,5,7(25),9,11,13(24),19,21-nonaen-16-one]
- inhibition at 1 µM [5]: 10 to 30%
- inhibition at 1 µM [9]: 30 to 60%
- inhibition at 1 µM [7]: 10 to 30%

Compound: COc1cc2cc(c1)OCCCCCCOc1ccc(Br)cc1Nc1cc(ncn1)N2 [Compound 40, 1H,7H-6,2: 8,12-dimetheno-13,20,1,3,5,7-benzodioxatetraazacyclodocosine, 23-bromo-14,15,16,17,18,19-hexahydro-10-methoxy-]
- C4 score (inhibition of EGFR human) [2]: 4 (Score 4=>80% inhibition)
- C9 score (inhibition of Lck human) [3]: 1 (Score 1=10-30% inhibition)
- C11 score (inhibition of Yes human) [4]: 4 (Score 4=>80% inhibition)
- C8 score (inhibition of GSK3β human) [10]: 1 (Score 1=10-30% inhibition)
- C6 score (inhibition of Flt3 human) [9]: 1 (Score 1=10-30% inhibition)

Compound: O=C1CCc2cccc(c2)Nc2cc(ncn2)Nc2cccc(c2)CN2CCN1CC2 [Compound 43, 1,8,10,12,14,23-hexaazapentacyclo[21.2.2.1~3,7~.1~9,13~.1~15,19~]triaconta-3,5,7(30),9,11,13(29),15,17,19(28)-nonaen-22-one]
- inhibition at 1 µM [2]: 30 to 60%
- inhibition at 1 µM [3]: 10 to 30%
- inhibition at 1 µM [4]: 10 to 30%
- inhibition at 1 µM [6]: 30 to 60%
- inhibition at 1 µM [8]: 30 to 60%
- inhibition at 1 µM [9]: 30 to 60%

— patent publication US8148388B2, “2,4 (4,6) pyrimidine derivatives” (Janssen Pharmaceutica, N.V., priority 2004, dated 2012)
